Test results taken from patent US3932633A, “Novel o-triazenobenzamides, in treating aggressive behavior” (Uniroyal Inc., priority 1974, dated 1976).
Where a name gives a salt, the structure may show the parent alone.

What was measured:
[1] = system: tetrabenazine-induced ptosis in mice; conditions: stated as known comparison; cited from earlier work
[2] = system: isolation-induced fighting in mice; test: Isolated fighting mouse (IFM) test / isolated mouse aggression; assay type: in vivo; conditions: for protected test animals in the IFM test: dose not restated in this sentence
Description: *IFM - Isolated fighting mouse test at a dose of 30 mg/kg
intraperitoneally; those compounds which protected at least 40% of the
(§1) Two models of aggression are used in the primary screening for neuroleptics, (1) isolation-induced fighting in mice (IFM), and (2) aggression induced in rats by destruction of the septal area (septal rat). Compounds are first submitted, however, to the neuropharmacological profile, a standard procedure (see, e.g., Samuel Irwin, Science, 136, 123 [1962]) employed in screening a compound to determine its usefulness as a central nervous system active compound. Those agents which cause depression over a wide dose range are then submitted to the first anti-aggression screen, the isolation-induced fighting mouse assay.
(§2) The compound of Example 6 was compared with chlorpromazine and chlordiazepoxide for its anti-aggressive activity. Three models of experimentally-induced aggression in rodents were studied (R. D. Sofia, Life Science, 8: 705, 1969).

[3] = system: mice trained to walk a rotating wooden rod; test: Neurotoxicity (rotating rod / rotorod), mice; conditions: mouse, in vivo
Description: (§3) In the neurotoxicity test, the value (NTD50) is defined as the dose necessary to cause 50% of mice or rats trained to walk a rotating wooden rod (5 rpm) to fall at the time of peak effect, and is a measure of drug effects on motor function or central nervous system toxicity. The results set forth in Table III were obtained when the compound of Example 6 was tested against chlorpromazine and chlordiazepoxide.

[4] = Neurotoxicity (rotating rod / rotorod), mice; conditions: mouse, in vivo
Description: as §3

[5] = system: isolation-induced fighting in mice; test: Isolated fighting mouse (IFM) test / isolated mouse aggression; assay type: in vivo; conditions: ip, 60 mg/kg intraperitoneally, read-out: IFM % protected
[6] = system: aggression induced in rats by destruction of the septal area; test: Septal rat aggression; assay type: in vivo
Text: as §1, §2

## CN(C)CCC=C1c2ccccc2CCc2ccccc21 [amitriptyline]
[1]
  reversal of tetrabenazine-induced ptosis by anti-depressants: reverse tetrabenazine-induced ptosis

## CNCCCN1c2ccccc2CCc2ccccc21 [desipramine]
[1]
  reversal of tetrabenazine-induced ptosis by anti-depressants: reverse tetrabenazine-induced ptosis

## Cc1ccc(NN=Nc2ccccc2C(N)=O)cc1Cl [Example 3, 2-[3-(3-chloro-4-methylphenyl)-1(or 2)-triazeno]-benzamide]
[2]; Mus musculus, ip, 30 mg/kg intraperitoneally, at least 40% protected = active
  responders at 30 mg/kg: 100%
[2]; Mus musculus, ip, i.p. administration, read-out: ED50 (IFM)
  ED50: 9.1 mg/kg
[2]
  protected test animals in the IFM test: 100%
[3]
  depression: do not cause depression
[4]
  TD50: > 100 mg/kg

## Cc1nc(NN=Nc2ccccc2C(=O)NCCCN(C)C)sc1C(=O)NCc1ccccc1 [Example 7, N-(3-dimethylaminopropyl)-2-[3-(4-methyl-5-(N-benzylcarbamoyl)-2-thiazolyl)-2(or 1)-triazeno]-benzamide (2:1) sulfate salt]
[5]
  responders at 60 mg/kg: 100%
[2]
  protected test animals in the IFM test: 100%
[6]; 6.25 mg/kg i.p.
  septal rat aggression, protection: 100%
[6]; 12.5 mg/kg i.p.
  septal rat aggression, protection: 100%
[6]; Rattus norvegicus, ip, indicated by 100% protection at 6.25 mg/kg, read-out: ED50, septal rat aggression
  ED50: < 6.25 mg/kg
[3]
  depression: do not cause depression
[4]
  TD50: > 100 mg/kg
